Among the test systems are MDA-MB-435; EKVX NSCLC; SF-295 CNS; MALME-3M melanoma; SK-OV-3 ovarian; HCC-2998 colon; K-562 leukemia; IGROV1 ovarian; T-47D breast; NCI-H522 lung.
Holding throughout (assay): NCI-60 cell line screen, 48 h

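Compound exposure: 48 hours, 5 concentrations, 96-well plates. Here, GI50 denotes the concentration required for 50% inhibition of growth. TGI: concentration producing complete growth inhibition.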 Some results are limits rather than exact numbers.

The results in this text go back to PubChem BioAssay (NCI).

In the case of `O=C(Cc1ccc(Nc2ccnc(C(F)(F)F)c2)cc1)Nc1cc(Cl)ccc1O`, the GI50 was 4.33 µM in the test on MDA-MB-435; 3.12 µM in the test with EKVX NSCLC; 3.06 µM with SF-295 CNS; 3.83 µM in the test with MALME-3M melanoma; 15.8 µM with SK-OV-3 ovarian; 13.6 µM with HCC-2998 colon. Moreover, the GI50 is 2.96 µM in the test on K-562 leukemia, 6.34 µM in the test with IGROV1 ovarian and 2.77 µM in the test on T-47D breast. Further, the TGI in the test on MDA-MB-435 is 17.5 µM; with EKVX NSCLC, 16.9 µM; in the test on SF-295 CNS, 11.9 µM; with MALME-3M melanoma, 32.7 µM; in the test on SK-OV-3 ovarian, 54.9 µM; in the test on HCC-2998 colon, 28.4 µM. For the same molecule, the values for the TGI in the test on K-562 leukemia, in the test on IGROV1 ovarian and with T-47D breast were 12 µM, 30 µM and 11.3 µM, respectively.

For `O=C(Cn1c(C(=O)c2ccc(Cl)cc2)nc(-c2ccccc2)c1-c1ccccc1)c1ccc(Cl)cc1`, the GI50 with MDA-MB-435, in the test with EKVX NSCLC, in the test with SF-295 CNS, in the test with MALME-3M melanoma, in the test with SK-OV-3 ovarian and with HCC-2998 colon was > 100 µM throughout. Besides, the GI50 in the test on K-562 leukemia, in the test on IGROV1 ovarian, in the test on NCI-H522 lung and in the test on T-47D breast was > 100 µM each time. Also, the TGI with MDA-MB-435, with EKVX NSCLC, with SF-295 CNS, in the test on MALME-3M melanoma, in the test on SK-OV-3 ovarian and with HCC-2998 colon was > 100 µM throughout. Also, the TGI with K-562 leukemia, with IGROV1 ovarian, in the test on NCI-H522 lung and in the test on T-47D breast was > 100 µM in each case.

Consider `NC(=O)c1sc(-n2cnc3ccc(C(F)(F)F)cc32)cc1OCc1ccccc1Br`, for which the GI50 was 0.636 µM with MDA-MB-435; > 21.3 µM in the test on EKVX NSCLC; 1.72 µM in the test on SF-295 CNS; 9.02 µM in the test with MALME-3M melanoma; 1.36 µM in the test on SK-OV-3 ovarian; 2.4 µM in the test with HCC-2998 colon. The GI50 in the test on K-562 leukemia is 1.06 µM; in the test on IGROV1 ovarian it was 2.22 µM; with NCI-H522 lung it was 0.793 µM; in the test on T-47D breast, 2.59 µM. The TGI in the test on MDA-MB-435 is 1.78 µM; in the test on EKVX NSCLC it was > 25 µM; with SF-295 CNS it was > 23.4 µM; with MALME-3M melanoma it was > 25 µM; with SK-OV-3 ovarian it was 9.41 µM; in the test on HCC-2998 colon, > 23.1 µM. Also, the TGI was > 25 µM in the test with K-562 leukemia, > 25 µM in the test with IGROV1 ovarian, 5.71 µM with NCI-H522 lung and > 20.3 µM with T-47D breast.

`CCCCCCCCNC(C)C(O)c1ccc(SC(C)C)cc1` (stereo not given): the GI50 in the test on MDA-MB-435 was 1.69 µM; in the test with EKVX NSCLC it was 1.44 µM; in the test on SF-295 CNS it was 1.68 µM; in the test with MALME-3M melanoma, 1.98 µM; in the test with SK-OV-3 ovarian, 1.63 µM; in the test with HCC-2998 colon, 1.58 µM. Also, the GI50 was 1.88 µM with K-562 leukemia, 1.81 µM with IGROV1 ovarian, 1.43 µM in the test with NCI-H522 lung and 1.32 µM with T-47D breast. In addition, the TGI in the test on MDA-MB-435 is 3.21 µM; in the test with EKVX NSCLC, 2.98 µM; in the test on SF-295 CNS it was 3.2 µM; in the test on MALME-3M melanoma it was 3.81 µM; with SK-OV-3 ovarian it was 2.98 µM; with HCC-2998 colon, 3.02 µM. For the same molecule, the TGI in the test with K-562 leukemia is 3.8 µM; with IGROV1 ovarian, 3.38 µM; in the test on NCI-H522 lung it was 2.95 µM; in the test on T-47D breast, 2.85 µM.

`O=C(Nc1ccc(Oc2ccc(NC(=O)Nc3ccc([N+](=O)[O-])cc3)cc2)cc1)Nc1ccc([N+](=O)[O-])cc1`: the GI50 with MDA-MB-435 was 2.16 µM; with EKVX NSCLC it was 2.32 µM; in the test on SF-295 CNS, 1.17 µM; with MALME-3M melanoma it was 1.93 µM; in the test with SK-OV-3 ovarian, 2.27 µM; in the test on HCC-2998 colon it was 2.28 µM. In addition, the GI50 in the test on K-562 leukemia was 0.826 µM; in the test on IGROV1 ovarian, 1.9 µM; in the test on NCI-H522 lung, 1.03 µM; in the test with T-47D breast it was 0.944 µM. Further, the TGI is 8.65 µM with MDA-MB-435; > 30.9 µM in the test with EKVX NSCLC; 17.9 µM with SF-295 CNS; 6.81 µM with MALME-3M melanoma; 7.51 µM in the test with SK-OV-3 ovarian; 8.02 µM with HCC-2998 colon. The TGI came to 4.71 µM with IGROV1 ovarian, 4.32 µM in the test on NCI-H522 lung and 6.74 µM in the test on T-47D breast.

As to `COc1cc(OC)c(F)c(COc2cnc(Nc3cnn(CCO)c3)nc2)c1F`, the GI50 in the test with MDA-MB-435 was 0.2 µM; in the test with EKVX NSCLC, 1.94 µM; in the test on SF-295 CNS it was 0.649 µM; in the test on MALME-3M melanoma it was 0.923 µM; with SK-OV-3 ovarian it was 0.845 µM; with HCC-2998 colon, 2.51 µM. Moreover, the GI50 with K-562 leukemia was 0.343 µM; with IGROV1 ovarian, 0.595 µM; with NCI-H522 lung, 0.341 µM; in the test on T-47D breast, 1.68 µM. Further, the TGI is 0.59 µM in the test on MDA-MB-435; > 100 µM in the test with EKVX NSCLC; > 29.8 µM with SF-295 CNS; 7.66 µM in the test on MALME-3M melanoma; 5.67 µM in the test on SK-OV-3 ovarian; > 100 µM with HCC-2998 colon. Also, the TGI was > 100 µM in the test with K-562 leukemia, > 100 µM with IGROV1 ovarian, 1.65 µM with NCI-H522 lung and > 100 µM in the test on T-47D breast.

For `O=C(Oc1ccccc1Cl)c1ccccc1Nc1cccc(C(F)(F)F)c1`, the GI50 is 11.7 µM in the test with MDA-MB-435; 33.1 µM in the test on EKVX NSCLC; 24.8 µM in the test with SF-295 CNS; 47.5 µM in the test with SK-OV-3 ovarian; 12.6 µM in the test with HCC-2998 colon; 2.67 µM in the test with K-562 leukemia. Moreover, the GI50 was 28 µM with IGROV1 ovarian, 19.5 µM in the test on NCI-H522 lung and 43.4 µM with T-47D breast. The TGI was 32.3 µM with MDA-MB-435; 79.6 µM in the test with EKVX NSCLC; 54.3 µM with SF-295 CNS; > 100 µM with SK-OV-3 ovarian; 26.7 µM in the test with HCC-2998 colon; 8.43 µM in the test on K-562 leukemia. Besides, the values for the TGI in the test with IGROV1 ovarian, in the test with NCI-H522 lung and in the test with T-47D breast were > 100 µM, 52.4 µM and > 100 µM, respectively.

As for `CCOc1cc2c(=O)oc3c(OC)ccc4ccc(c1OC)c2c43`, the TGI with MDA-MB-435, in the test on EKVX NSCLC, in the test with SF-295 CNS, with MALME-3M melanoma, with SK-OV-3 ovarian and in the test with HCC-2998 colon was > 100 µM throughout. The TGI is > 100 µM in the test on K-562 leukemia, > 100 µM with IGROV1 ovarian, 90.7 µM in the test with NCI-H522 lung and > 100 µM in the test on T-47D breast.

As for `CC(=O)Nc1ccc(-c2csc(Nc3cccc(-c4csc(-c5ccccc5)n4)c3)n2)cc1`, the GI50 with MDA-MB-435 is 15.2 µM; in the test on EKVX NSCLC, 20.2 µM; in the test on SF-295 CNS, 14.7 µM; in the test with SK-OV-3 ovarian, > 50 µM; in the test on HCC-2998 colon, 12.5 µM; in the test with K-562 leukemia, 12.6 µM. Besides, the GI50 was 21.5 µM with IGROV1 ovarian, 24.2 µM with NCI-H522 lung and 43.4 µM in the test on T-47D breast. Further, the TGI was > 50 µM with MDA-MB-435; > 50 µM in the test on EKVX NSCLC; > 50 µM with SF-295 CNS; > 50 µM in the test with SK-OV-3 ovarian; > 50 µM with HCC-2998 colon; 48.5 µM in the test on K-562 leukemia. The TGI in the test on IGROV1 ovarian, in the test with NCI-H522 lung and in the test on T-47D breast was > 50 µM throughout.

Turning to `O=C(NO)c1ccc(Cn2c(=O)n(-c3ccccc3)c(=O)c3ccccc32)cc1`, the GI50 with MDA-MB-435 was 0.531 µM; in the test with EKVX NSCLC it was 1.11 µM; with SF-295 CNS, 1.38 µM; with MALME-3M melanoma it was 0.473 µM; with SK-OV-3 ovarian, 1.3 µM; in the test on HCC-2998 colon it was 1.31 µM. In addition, the GI50 in the test with K-562 leukemia is 0.942 µM; in the test on T-47D breast, 0.436 µM. The TGI in the test with MDA-MB-435 came out at 1.77 µM; in the test on EKVX NSCLC, 2.69 µM; in the test on SF-295 CNS, 2.98 µM; in the test on MALME-3M melanoma, 2.34 µM; with SK-OV-3 ovarian, 3.17 µM; with HCC-2998 colon it was 2.65 µM. Also, the TGI in the test on K-562 leukemia was > 100 µM; with T-47D breast, 2.95 µM.

In the case of `O=C(Nc1ccc(Nc2ccncc2)cc1)c1ccc(Nc2ccnc3ccc([N+](=O)[O-])cc23)cc1[N+](=O)[O-]`, the GI50 is 23.3 µM with MDA-MB-435; 22.5 µM in the test on EKVX NSCLC; 6.69 µM in the test on SF-295 CNS; 19.3 µM in the test with SK-OV-3 ovarian; 32.9 µM in the test on HCC-2998 colon; 36.4 µM with K-562 leukemia. Also, the GI50 in the test on IGROV1 ovarian was 14.1 µM; with NCI-H522 lung, 21.9 µM; in the test on T-47D breast, 6.39 µM. The TGI in the test on MDA-MB-435 is > 100 µM; in the test with EKVX NSCLC, > 100 µM; with SF-295 CNS, 98.3 µM; in the test with SK-OV-3 ovarian, 40 µM; in the test with HCC-2998 colon, > 100 µM; with K-562 leukemia it was > 100 µM. Further, the TGI with IGROV1 ovarian was > 83.7 µM; in the test with NCI-H522 lung, 68.6 µM; in the test on T-47D breast it was 34.9 µM.

For the molecule `O=C(c1nn(-c2ccc(Cl)cc2)cc1O)n1nc(C(F)(F)F)cc1-c1ccccc1`, the GI50 is 3.38 µM with MDA-MB-435; 2 µM in the test with EKVX NSCLC; 0.478 µM in the test with SF-295 CNS; 12.1 µM in the test with MALME-3M melanoma; 2.53 µM in the test with SK-OV-3 ovarian; 9.4 µM with HCC-2998 colon. For the same molecule, the figures for the GI50 in the test on K-562 leukemia, in the test with IGROV1 ovarian and in the test on T-47D breast were 1.72 µM, 0.921 µM and 4.01 µM, respectively. Moreover, the TGI in the test on MDA-MB-435 was > 100 µM; with EKVX NSCLC it was > 100 µM; in the test on SF-295 CNS, > 65.6 µM; in the test with MALME-3M melanoma it was > 100 µM; in the test with SK-OV-3 ovarian, > 100 µM; in the test on HCC-2998 colon it was > 100 µM. Also, the TGI in the test on K-562 leukemia, with IGROV1 ovarian and in the test on T-47D breast was > 100 µM throughout.
